Like-named read-outs stand apart in the source and are kept apart here.

The test system of data set [1] is penicillin V amidase. Description: Hydrolysis of APO to adriamycin by PVA or L6-PVA conjugate (HPLC). The class given is biochemical, Fusarium oxysporum. As to the method: The ability of the antibody-PVA conjugate, L6-PVA, to convert the novel prodrug, APO, to adriamycin was measured as follows: either a) PVA alone (final concentration:50 µg/ml), b) 100 µg/ml of the L6-PVA conjugate (final PVA concentration: 25 µg/ml) or c) 10 µg/ml of L6-PVA (final PVA concentration: 2.5 µg/ml) were added to a solution of APO (0.1 mM) in PBS. Each reaction was monitored by HPLC using a Phenominex C-18 column (3 µm, 4.5 x 100 mm) and a gradient elution of 20-60% tetrahydrofuran in water with 0.1% H3PO4 (1.0 ml/min, monitored at 495 nm). Under these conditions, the adriamycin eluted at 8.9 minutes and the APO eluted at 12.2 minutes.

The test system of data set [2] is H2981 tumor cells. Briefly: 3H-thymidine uptake assay on H2981 cells, PVA conjugates with APO. The settings on record: Homo sapiens; H2981 cells untreated with any conjugate. The class given is cell-based. As for the experimental part:
The in vitro cytotoxic effect of the antibody-PVA/ adriamycin prodrug combination of the invention toward H2981 tumor cells was measured using the ^3H-thymidine uptake assay described in Examples 1 and 2 above. Briefly, the H2981 tumor cells were plated into 96-well microtiter plates in IMDM (10,000 cells/well) and were allowed to attached for 18 h at 37°C. The antibody-PVA conjugates, L6-PVA or 1F5-PVA, were then added at a concentration of 10 µg/ml of antibody and the plates were incubated for 30 min at 4°C. The wells were then washed four times with IMDM and APO was added at varying concentrations in IMDM. After two h, the wells were again washed, IMDM was added and the cells were left for 18 h at 37°C. At that point, ^3H-thymidine was added (1 µCi per well) and after 6 h, the plates were frozen at -70°C to detach the cells. After thawing, the cells were harvested onto glass fiber filters. The incorporation of ^3H-thymidine was measured in a Beckman 3801 scintillation counter and compared to cells treated with APO or adriamycin (ADM) alone.

A short description of data set [3]: Stability of aqueous solutions of etoposide prodrugs. The class given is physicochemical. As to the method:
For example, either AP alone or the antibody-enzyme conjugate, L6-AP, produced as described above (final AP concentration 5 µg/ml) were added to a solution of etoposide-4'-phosphate (0.1 mM) in Tris buffer (100 mM) containing MgCl2 (1 mM) and ZnCl2 (0.1 mM) at pH 7.0. The reaction was monitored by HPLC using an IBM C-18 column (3 µ, 4.5 x 100 mm) and 50% aqueous methanol as eluant (0.5 ml/min, monitored at 254 nm). […] Aqueous solutions of etoposide phosphate or etoposide thiophosphate were stable for at least 8 hours at room temperature and for several days at 4°C.

The test system of data set [4] is H3347 tumor cells. Description: Clonogenic cytotoxicity (colony inhibition) assay. The class given is cell-based. As to conditions: Homo sapiens, 15 hours drug exposure, colonies counted 7-10 days later. As for the experimental part:
The clonogenic cytotoxicity assay we used was the colony inhibition assay described by I. Hellstrom et al., "Colony Inhibition And Cytotoxicity Assays," in In Vitro Methods In Cell-Mediated Immunity, Bloom and Glade (ed.s), pp.- 409-14 (1971). The cells used to detect cytotoxicity were the H3347 tumor cells described above. Both the L6-AP and 96.5-AP conjugates were tested for their ability to convert prodrug into the free drug.
Briefly, the H3347 cells (10^6/ml) were suspended in IMDM growth media (containing 10 µg/ml of each immunoconjugate based on antibody concentration) and incubated for 30 min at 37°C. The cells were washed twice, resuspended in IMDM, and the drug or prodrug in medium was added. Incubation at 37°C was continued for 15 hours. After washing twice, the cells were plated out and the number of colonies (>8 cells/colony) were counted 7-10 days later.

Data set [5] concerns H3347 tumor cells. Briefly: 3H-thymidine uptake assay on H3347 cells. The class given is cell-based, human.
In data set [6] the test system is H3347 tumors. Briefly: In vivo antitumor effect, conjugate/etoposide phosphate, s.c. H3347 tumors. More on the design: species or system nude mice. As to conditions: for antitumor effect on tumor growth: Figure 11, conjugates i.p. 18-24 h prior to EP; for tolerability in the animals: nude mice, maximum tolerated doses; for RESPONSE complete / RESPONSE partial / RESPONSE progression / RESPONSE stable: number of 16 tumors in each group, 23 days after tumor implant. As for the experimental part: First, Balb/C nu/nu female mice (4-6 wk old) (obtained from Life Sciences, St. Petersburg, Florida) were injected with 10^7 H3347 tumor cells subcutaneously (s.c.) in the left and right hind flanks. The tumor cells were obtained from in vitro cultures that had been suspended by treatment for 2 min with trypsin (0.5 g/l) and EDTA (0.2 g/l). The cells were washed twice with IMDM and incubated for 1 h at 37°C in IMDM with 10% fetal calf serum. The cells were washed, suspended in PBS, and kept at 4°C prior to injection. Both the localization and therapy studies described herein were initiated when the tumors reached an average size of 225 mm^3.
Therapy experiments were performed on nude mice that had s.c. tumors approximately 225 mm^3 in volume. The conjugates, L6-AP and 1F5-AP, were administered (i.p.) 18-24 h prior to treatment with EP. Tumor growth was compared to that in untreated mice and in mice treated with maximum tolerated doses of etoposide or EP alone.
More particularly, a group of 8 nude mice with bilateral H3347 tumors was treated with either etoposide (0.2 ml containing 1.2 mg etoposide in 2:3 DMSO:H2O) or EP (0.2 ml containing 2 mg EP in H2O) alone or with L6-AP (0.1 ml containing 300 µg antibody in PBS) or 1F5-AP (0.1 ml containing 300 µg antibody in PBS) followed by EP treatment Each experiment contained a control group of mice that was untreated. Tumor volumes were estimated at various days post tumor implant, using the formula: ([(perpendicular width)^2 /2)] X longest length [formula]

Data set [7] relates to H2981 tumor cells.
Data set [8] relates to Alkaline phosphatase. Briefly: Hydrolysis of etoposide phosphate prodrugs by AP or L6-AP conjugate (HPLC). As to conditions: for hydrolysis by alkaline phosphatase, relative rate: Figure 5.
Data set [9] can be described thus: Relative toxicities of MOH and MOP in mice. Set-up: species or system Balb C nu/nu mice. The settings on record: mouse, in vivo, ip. As for the experimental part: Prior to investigating the in vivo antitumor activity of MOP in combination with the L6-AP conjugate the relative toxicities of the prodrug and its released active derivative, MOH, were determined in Balb C nu/nu mice. […] Total amounts of up to 40 mg/kg of MOH and 100 mg/kg of MOP were well tolerated if given in 4 equal doses over a 25 day period.

Data set [10] concerns H2981 tumor. Description: In vivo antitumor effect, conjugate/mitomycin prodrug and MOP/EP combinations, s.c. H2981 tumor. More on the design: species or system nude Balb C nu/nu female mice. As to the method:
Therapy studies were then performed on nude Balb C nu/nu female mice (6 mice per treatment group) (4-6 wk old) obtained from Life Sciences (St. Petersburg, Fla.) that had been implanted (s.c., right hind flank) with a H2981 tumor obtained from in vivo sourcing. The experiments were run when the tumors reached approximately 100 mm^3 in volume. The L6-AP and 1F5-AP conjugates (0.1 ml containing 250 µg antibody in PBS) were each administered (i.p.) 18-24 h prior to treatment with MOP (0.2 ml containing 0.6 mg MOP in H2O). Tumor growth was compared to that observed in untreated mice and in mice treated with maximum tolerated doses of MOP (0.2 ml containing 0.6 mg MOP in H2O) or MOH (0.2 ml containing 0.2 mg MOH in H2O) alone.
The prodrugs, EP and MOP, were prepared as described in Examples 1 and 2, respectively. Preparation of the L6-AP and 1F5-AP immunoconjugates is described in Example 1. The in vivo studies on nude mice were carried out as described in Examples 1 and 2 above. Thus, nude mice that had been implanted with a H2981 tumor were pre-exposed to the L6-AP or 1F5-AP conjugate 18-24 h prior to treatment with a combination of MOP/EP (0.2 ml containing 1 mg EP and 0.3 mg MOP in H2O). Tumor growth was compared to that observed in untreated mice and in mice treated with the MOP/EP combination alone.

The test system of data set [11] is H2981 tumor cells. Description: cells. The settings on record: Homo sapiens.

By IC50 is commonly meant the point on the concentration scale where inhibition reaches its midpoint. As for `COc1cccc2c1C(=O)c1c(O)c3c(c(O)c1C2=O)C[C@@](O)(C(=O)CO)C[C@@H]3O[C@H]1C[C@H](NC(=O)COc2ccc(O)cc2)[C@H](O)[C@H](C)O1` [APO, N-(p-hydroxyphenoxyacetyl)adriamycin], the “time to effect this level of hydrolysis (at least 80%)” value in [1] (L6-PVA conjugate at 10 µg/ml (2.5 µg/ml of PVA)) was determined as 120 min. For the same compound, in [1] (within 40 minutes, PVA alone 50 µg/ml or L6-PVA conjugate 100 µg/ml), the “hydrolysis of APO to adriamycin” value is on record as “at least 80%”. Further, the IC50 in data set [2] was determined as 2000 nM.

The inhibition is the relative decrease from the control value, in per cent. A high value points to a strong effect. Take `COc1cc(C2c3cc4c(cc3C(OC3OC5COC(C)OC5C(O)C3O)C3COC(=O)C23)OCO4)cc(OC)c1OP(=O)(O)O` (stereo not shown) [EP, 4'-disodium phosphate ester of etoposide]: the “stability of aqueous solutions” value in [3] (4°C) is listed as “several days”. Also, in data set [3] (room temperature), the “stability of aqueous solutions” value is reported as “at least 8 hours”. This compound yielded an IC50 in [4] of 5800 nM. Also, the inhibition at 100 µM in data set [5] (Homo sapiens, at 100 µM) was found to be 35%. For the same compound, in data set [6], the “antitumor effect on tumor growth” value is recorded as “greater antitumor effect than seen with etoposide itself”, the “tolerability in the animals” value is “less toxic to the animals”, the RESPONSE complete stood at 0 and the RESPONSE partial amounted to 0. In data set [6], the RESPONSE progression stood at 6 and the RESPONSE stable is 10. Also, the kill in data set [7] (human, h2981 cells, 30 µM) stood at 20%. In addition, the “hydrolysis by alkaline phosphatase, relative rate” value in data set [8] is reported as “hydrolyzed by the enzyme more rapidly than the etoposide thiophosphate prodrug”. In data set [8] (Tris buffer pH 7.0, no enzyme), the “phosphate hydrolysis in the absence of enzyme” value is “no phosphate hydrolysis occurred”. Also, the “hydrolysis of the etoposide-4'-phosphate to etoposide” value in data set [8] (within 5 min of the start, AP free or as L6-AP conjugate, final AP concentration 5 µg/ml, prodrug 0.1 mM, pH 7.0) is recorded as “at least 85 X”.

Compound `CO[C@@]12[C@H](COC(N)=O)C3=C(C(=O)C(C)=C(N)C3=O)N1C[C@@H]1N[C@@H]12` [MMC, mitomycin C, reference compound] yielded an IC50 in [7] of approximately 1000 nM.

In general, LD50 refers to the dose expected to kill half of the subjects tested. `CO[C@@]12[C@H](COC(N)=O)C3=C(C(=O)C(C)=C(NCCO)C3=O)N1C[C@@H]1N[C@@H]12` [MOH, 7-[(2-hydroxyethyl)amino]-9a-methoxymitosane, reference compound]: the median lethal dose (LD50) in data set [9] (two equal doses spaced 4 days apart) is 45 mg/kg. Besides, the MTD in [9] (given in 4 equal doses over a 25 day period, read-out: total amounts well tolerated) is not below 40 mg/kg. The “antitumor activity in vivo” value in data set [10] (Figures 18 and 19, conjugates 18-24 h prior to prodrug) is “significant antitumor activities in vivo”. The “time required to reach an average tumor volume of 750 mm^3” value in data set [10] (H2981 tumor, maximum tolerated doses) was 45 days. For the same compound, the “TUMOR RESPONSES PROGRESSION” value in data set [10] (by day 63, mitomycin derivatives (Table 3)) is recorded as 6/6. The IC50 in [11] was approximately 1000 nM.

On to `COc1cc(C2c3cc4c(cc3C(OC3OC5COC(C)OC5C(O)C3O)C3COC(=O)C23)OCO4)cc(OC)c1OP(O)(O)=S` (stereo not shown) [etoposide thiophosphate, 4'-disodium thiophosphate ester of etoposide], for which the “stability of aqueous solutions” value in data set [3] (4°C) is listed as “several days”; in data set [3] (room temperature), “at least 8 hours”. Further, the “hydrolysis by alkaline phosphatase, relative rate” value in [8] was “increased stability towards hydrolysis”.

For the compound `COc1cc([C@@H]2c3cc4c(cc3[C@@H](O[C@@H]3O[C@@H]5CO[C@@H](C)O[C@H]5[C@H](O)[C@H]3O)[C@H]3COC(=O)[C@H]23)OCO4)cc(OC)c1O` [etoposide, reference compound], half-maximal inhibition in data set [4] (IC50) required 200 nM. In data set [5], the “toxicity relative to EP” value is given as “more than 100 fold”. This compound also yielded an IC50 in data set [5] (Homo sapiens, 6 h drug exposure) of 1000 nM. Besides, in data set [6], the “antitumor effect on tumor growth” value is given as “very little effect on tumor growth”, the “tolerability in the animals” value was “higher doses were not well tolerated”, the RESPONSE complete stood at 0 and the RESPONSE partial was determined as 0. In data set [6], this compound gave an RESPONSE progression of 12 and an RESPONSE stable of 4. The compound further showed a half-maximal inhibitory concentration (IC50) in data set [11] of 2000 nM.
